pEC50, pIC50: −log10 of the molar value. Like-named read-outs stand apart in the source and are kept apart here.
Legend:
[1] = target: MCL-1/Bim interaction (recombinant human MCL-1 protein, residues 171-327; biotinylated human Bim peptide, residues 51-76) (Homo sapiens (Human), UniProt Q07820); assay: MCL-1/Bim Binding AlphaLISA Assay; conditions: 0.0625 nM 6xHis-Mcl-1 (171-327), 0.0625 nM biotinylated-Bim peptide
In short: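 AlphaLISA with 0.0625 nM His-tagged MCL-1 and 0.0625 nM biotin-Bim peptide in 20 mM Hepes pH 7.5, 150 mM NaCl, 0.002% Brij 35, 1 mM DTT, 0.01% BSA. Compound preincubated 1 h with MCL-1, Bim added for 2 h, then acceptor and donor beads 1 h each.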

SKBR3 cells = assay: SKBR3 Cell Viability Assay (CellTiter Glo); assay type: cell-based; conditions: CellTiter Glo luminescence, read-out: MCL-1 CV SKBR3 EC50
In short: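 SKBR3 cells (6,000/well) in McCoy 5A + 10% FBS exposed to serially diluted compound for 72 h at 37° C., 5% CO2. Viability by CellTiter Glo luminescence; % inhibition normalized to DMSO (negative) and 10 μM puromycin (positive).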

Sequence of MCL-1/Bim interaction (recombinant human MCL-1 protein, residues 171-327; biotinylated human Bim peptide, residues 51-76) (Q07820 171-327): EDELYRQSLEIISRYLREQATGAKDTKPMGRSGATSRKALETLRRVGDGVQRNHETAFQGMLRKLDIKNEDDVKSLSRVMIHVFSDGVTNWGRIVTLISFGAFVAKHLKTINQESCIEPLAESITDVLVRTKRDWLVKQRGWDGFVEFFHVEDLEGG

| pIC50 [1] | pEC50 (SKBR3 cells; Homo sapiens, SK-BR-3, 72 h) | SMILES | pEC50 (SKBR3 cells; 72 hours) | pEC50 (SKBR3 cells; Homo sapiens, SK-BR-3, 72 hours) |
| --- | --- | --- | --- | --- |
| 10.07 | 7.18 | CO[C@H]1/C=C/C[C@H](C)C[S@@](=O)(NC(=O)[C@H]2CCc3cnn(C)c3C2)=NC(=O)c2ccc3c(c2)N(C[C@@H]2CC[C@H]21)C[C@@]1(CCCc2cc(Cl)ccc21)CO3 (single isomer, unassigned) [Example 141] | – | – |
| 10.24 | 7.19 | CO[C@@H]1CC[C@@H](NC(=O)N[S@@]2(=O)=NC(=O)c3ccc4c(c3)N(C[C@@H]3CC[C@H]3[C@@H](OC)/C=C/C[C@H](C)C2)C[C@@]2(CCCc3cc(Cl)ccc32)CO4)C1 [Example 322] | – | – |
| 10.28 | 6.62 | COC[C@@H]1CN(C(=O)N[S@@]2(=O)=NC(=O)c3ccc4c(c3)N(C[C@@H]3CC[C@H]3[C@@H](OC)/C=C/C[C@H](C)C2)C[C@@]2(CCCc3cc(Cl)ccc32)CO4)CCO1 [Example 232] | – | – |
| 9.30 | 6.07 | CO[C@H]1/C=C/CCC[S@@](=O)(NC(=O)CCc2cc(C)nn2C)=NC(=O)c2ccc3c(c2)N(C[C@@H]2CC[C@H]21)C[C@@]1(CCCc2cc(Cl)ccc21)CO3 [Example 89] | – | – |
| 10.21 | 7.06 | COC1CN(C(=O)N[S@@]2(=O)=NC(=O)c3ccc4c(c3)N(C[C@@H]3CC[C@H]3[C@@H](OC)/C=C/CCC2)C[C@@]2(CCCc3cc(Cl)ccc32)CO4)C1 [Example 390] | – | – |

The next lines start with the compound.

| SMILES | pIC50 [1] | pEC50 (SKBR3 cells; Homo sapiens, SK-BR-3, 72 h) | pEC50 (SKBR3 cells; 72 hours) | pEC50 (SKBR3 cells; Homo sapiens, SK-BR-3, 72 hours) |
| --- | --- | --- | --- | --- |
| COC(=O)[C@]1(C)C[C@H](NC(=O)N[S@@]2(=O)=NC(=O)c3ccc4c(c3)N(C[C@@H]3CC[C@H]3[C@@H](OC)/C=C/C[C@H](C)C2)C[C@@]2(CCCc3cc(Cl)ccc32)CO4)C1 [Example 305] | 10.06 | 6.86 | – | – |
| COCCOC1CCN(C(=O)N[S@@]2(=O)=NC(=O)c3ccc4c(c3)N(C[C@@H]3CC[C@H]3[C@@H](OC)/C=C/C[C@H](C)C2)C[C@@]2(CCCc3cc(Cl)ccc32)CO4)CC1 [Example 234] | 10.28 | 7.13 | – | – |
| CO[C@H]1/C=C/C[C@H](C)C[S@@](=O)(NC(=O)N2CC(F)(F)C2)=NC(=O)c2ccc3c(c2)N(C[C@@H]2CC[C@H]21)C[C@@]1(CCCc2cc(Cl)ccc21)CO3 [Example 323] | 9.80 | 6.77 | – | – |
| CO[C@H]1/C=C/CCC[S@@](=O)(NC(=O)CCc2nnc(C)s2)=NC(=O)c2ccc3c(c2)N(C[C@@H]2CC[C@H]21)C[C@@]1(CCCc2cc(Cl)ccc21)CO3 [Example 102] | 9.52 | 6.05 | – | – |
| CO[C@H]1/C=C/C[C@H](C)C[S@@](=O)(NC(=O)N[C@H]2C[C@@]2(C)OC)=NC(=O)c2ccc3c(c2)N(C[C@@H]2CC[C@H]21)C[C@@]1(CCCc2cc(Cl)ccc21)CO3 (single isomer, unassigned) [Example 313] | 10.19 | 7.02 | – | – |
| CCC(=O)N[S@]1(=O)=NC(=O)c2ccc3c(c2)N(C[C@@H]2CC[C@H]2[C@@H](OC)CCCCC1)C[C@@]1(CCCc2cc(Cl)ccc21)CO3 [Example 17] | 7.95 | – | 5.00 | – |
| CO[C@H]1/C=C/C[C@H](C)C[S@@](=O)(NC(=O)[C@H]2C[C@@H]2c2cccnc2)=NC(=O)c2ccc3c(c2)N(C[C@@H]2CC[C@H]21)C[C@@]1(CCCc2cc(Cl)ccc21)CO3 [Example 426] | 10.04 | 6.50 | – | – |
| CCN(CC)C(=O)OC1CN(C(=O)N[S@@]2(=O)=NC(=O)c3ccc4c(c3)N(C[C@@H]3CC[C@H]3[C@@H](OC)/C=C/C[C@H](C)C2)C[C@@]2(CCCc3cc(Cl)ccc32)CO4)C1 [Example 226] | 10.02 | 7.15 | – | – |
| COc1nn(C)cc1C(=O)N[S@@]1(=O)=NC(=O)c2ccc3c(c2)N(C[C@@H]2CC[C@H]2[C@@H](OC(=O)CN(C)C(=O)CNC(C)(C)C)/C=C/C[C@H](C)[C@H]1C)C[C@@]1(CCCc2cc(Cl)ccc21)CO3 [Example 293] | 10.24 | 7.16 | – | – |
| CO[C@H]1/C=C/C[C@H](C)C[S@@](=O)(NC(=O)N2CC(N3CCN4CCOC[C@@H]4C3)C2)=NC(=O)c2ccc3c(c2)N(C[C@@H]2CC[C@H]21)C[C@@]1(CCCc2cc(Cl)ccc21)CO3 [Example 297] | 10.48 | – | – | 7.16 |
